Test results reported in patent US7217534B2, “Methods of screening apoptosis modulating compounds, compounds identified by said methods and use of said compounds as therapeutic agents” (Institut Pasteur, priority 2002, dated 2007).

B1: IL-4: Murine rIL-4 or supernatant of a HeLa subline transfected with PKCRIL-4.neo, used as source of murine IL-4 (protein, UniProt P07750 21-140, looked up)
Interleukin-4: HIHGCDKNHLREIIGILNEVTGEGTPCTEMDVPNVLTATKNTTESELVCRASKVLRIFYLKHGKTPCLKKNSSVLMELQRLFRAFRCLDSSISCTMNESKSTSLKDFLESLKSIMQMDYS

Legend:
[1] = test system: IL-4-stimulated cells (TS1αβ murine T cell line); assay: Cholesterol depletion, raft association of Bad and Lck by CTx-FITC confocal microscopy; format: cell-based; conditions: 10 mM, 30 min, 37° C., serum-free medium
Procedure: A) IL-4-stimulated cells were serum-starved for 30 min and then treated with or without 10 mM M-β-CD for 30 min at 37° C. before incubation with CTx-FITC and anti-Bad or anti-Lck antibodies, followed by Cy3-labeled secondary antibody. Then, cells were analyzed by confocal microscopy. Similar results were obtained in two independent experiments. Single confocal sections show green (FITC) and red (Cy3) fluorescence. B) IL-4-stimulated cells were serum-starved for 30 min and then treated with or without 10 mM M-β-CD for 30 min at 37° C., then washed and transferred to complete medium supplemented with IL-4. At different times, apoptosis was measured. Sub G1 region of the fluorescence scale was used to determine the percentage of cells present in the initial step of apoptosis. Similar results were obtained in two independent experiments. White bars, control cells; grey bars, M-β-CD-treated cells. […]
IL-4-stimulated or -deprived cells were fixed with 1% paraformaidehyde for 5 min on ice, permeabilized and then incubated with CTx-FITC (20 min, 6 μg/ml) and anti-Bad antibody for 1 h in PBS-BSA. […] Finally, and after several washing steps, cells were incubated with methanol at −20° C. for 10 min, mounted wiht Vectashield medium, and analyzed by confocal microscopy. The program used for quantification of samples was Leica TSC NT version 1.5.451 (Leica, Lasertechnik, Heidelberg, Germany). […]

[2] = test system: IL-4-stimulated cells (TS1αβ murine T cell line); assay: Apoptosis by cell cycle analysis (sub-G1 region, propidium iodide flow cytometry); format: cell-based
Procedure: A) IL-4-stimulated cells were serum-starved for 30 min and then treated with or without 10 mM M-β-CD for 30 min at 37° C. before incubation with CTx-FITC and anti-Bad or anti-Lck antibodies, followed by Cy3-labeled secondary antibody. Then, cells were analyzed by confocal microscopy. Similar results were obtained in two independent experiments. Single confocal sections show green (FITC) and red (Cy3) fluorescence. B) IL-4-stimulated cells were serum-starved for 30 min and then treated with or without 10 mM M-β-CD for 30 min at 37° C., then washed and transferred to complete medium supplemented with IL-4. At different times, apoptosis was measured. Sub G1 region of the fluorescence scale was used to determine the percentage of cells present in the initial step of apoptosis. Similar results were obtained in two independent experiments. White bars, control cells; grey bars, M-β-CD-treated cells.
(§1) TS1αβ is a murine T cell line that can be propagated independently in IL-2, IL-4 or IL-9 Cells were cultured in RPMI-1640 as previously described (Pitton et al., 1993, Cytokine 5, 362–371). Murine rIL-4 or supernatant of a HeLa subline transfected with PKCRIL-4.neo was used as a source of murine IL-4. Fluorescein isothiocyanate (FITC-)-labeled cholera toxin (CTx) B subunit, CTx-Biotin and methyl-β-cyclodextrin (M-β-CD) were obtained from Sigma-Aldrich (St. Louis, Mo.). Cy3- and Cy2-conjugated secondary antibodies were purchased from Molecular Probes (Eugene, Oreg.). Anti-mitochondria serum (mito 2813, pyruvate dehydrogenase) was a gift from Dr A. Serrano (CNB, Madrid, Spain).
A total of 2×10^5 IL-4-stimulated cells treated with or without M-β-CD were washed, resuspended in PBS, permeabilized with 0.1% Nonidet P-40 and stained with 50 μg/ml propidium iodide (PI). At different times, samples were analyzed using a EpicsXL flow cytometer (Coulter, Hialeah, Fla.). Apoptosis was measured as the percentage of cells in the sub-G1 region of the fluorescence scale having an hypodiploid DNA content.
Given that exclusion of Bad from rafts was also observed in apoptotic IL-4-deprived cells (FIG. 3A), it was analyzed whether Bad association to rafts and its integrity was necessary for prevention of apoptosis. For this purpose, IL-4-stimulated cells were treated for 30 min with or without M-β-CD in serum-free medium, then washed, resuspended in IL-4-supplemented complete medium and analyzed for induction of apoptosis at different times (FIG. 4B). […] Eight hours upon treatment, the amount of apoptotic cells detected in treated and non treated cells were similar because addition of serum restores the lipid composition of the membrane.

Bad = assay: Serine phosphorylation of Bad by immunoprecipitation and western blot; format: cell-based, murine; conditions: anti-Bad serine 136, 112 and 155 blots, IL-4-stimulated cells
From the text: A) Cytoplasmic extracts from IL-4-stimulated or -deprived cells were immunoprecipitated with anti-Bad antibody and blotted with anti-Bad serine 136, 112 and 155. As internal control, the blot was developed with anti-Bad. Positive control for serine 112 and 136 phosphorylation, IL-2-stimulated cells; positive control for serine 155 phosphorylation of Bad, Bad-transfected COS cells (C). […] Molecular weight of the corresponding proteins is shown.
as §1, with “Spain). […]” for “Spain).”
Posttranslational modifications of Bad such as phosphorylation, and its role in Bad localization in rafts or mitochondria was further analyzed. […]

Molecule | raft formation and association of Lck and Bad with rafts [1] | time of highest level of apoptosis after treatment ([2]; 30 min treatment in serum-free medium, then IL-4-supplemented complete medium) [h] | level of apoptosis compared with control non treated cells ([2]; 30 min treatment in serum-free medium, then IL-4-supplemented complete medium, different times) | amount of apoptotic cells in treated and non treated cells ([2]; eight hours upon treatment, serum added back) | serine phosphorylation of Bad (Bad) | level of apoptosis in IL-4-stimulated cells ([2]; control IL-4-stimulated cells versus IL-4-deprived cells, 4 h to 24 h)
methyl-β-cyclodextrin [M-β-CD] | severe disruption of raft formation and association of Lck and Bad with rafts | 5 | stronger level of apoptosis | similar | – | –
B1 | – | – | – | – | induces serine 136 phosphorylation of Bad, but not serine 112 and 155 | no significant level of apoptosis
